From PubChem BioAssay (NCI)
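96-well plates; 48 h exposure; 5 concentrations. Endpoints by linear interpolation between flanking doses. Not reached: highest tested concentration assigned. Here, GI50 denotes the concentration required for 50% inhibition of growth. TGI marks complete inhibition of growth.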

What was measured:
Test in all cases: NCI-60 cell line screen, 48 h
MDA-MB-435 = test system: MDA-MB-435
MDA-MB-468 breast = test system: MDA-MB-468 breast
OVCAR-5 ovarian = test system: OVCAR-5 ovarian
ACHN renal = test system: ACHN renal
CCRF-CEM leukemia = test system: CCRF-CEM leukemia
HT29 colon = test system: HT29 colon
SR leukemia = test system: SR leukemia
OVCAR-8 ovarian = test system: OVCAR-8 ovarian
K-562 leukemia = test system: K-562 leukemia
UO-31 renal = test system: UO-31 renal
HCT-116 colon = test system: HCT-116 colon
A549 NSCLC = test system: A549 NSCLC
OVCAR-4 ovarian = test system: OVCAR-4 ovarian
HCT-15 colon = test system: HCT-15 colon
MDA-MB-231 breast = test system: MDA-MB-231 breast
TK-10 renal = test system: TK-10 renal
T-47D breast = test system: T-47D breast
SF-539 CNS = test system: SF-539 CNS
PC-3 prostate = test system: PC-3 prostate
SF-295 CNS = test system: SF-295 CNS
SK-MEL-28 melanoma = test system: SK-MEL-28 melanoma
MALME-3M melanoma = test system: MALME-3M melanoma
COLO 205 colon = test system: COLO 205 colon
UACC-62 melanoma = test system: UACC-62 melanoma
NCI-H522 lung = test system: NCI-H522 lung
BT-549 breast = test system: BT-549 breast
786-0 renal = test system: 786-0 renal
HOP-92 NSCLC = test system: HOP-92 NSCLC
A498 renal = test system: A498 renal
IGROV1 ovarian = test system: IGROV1 ovarian
SW-620 colon = test system: SW-620 colon
RXF 393 renal = test system: RXF 393 renal
M14 melanoma = test system: M14 melanoma
NCI-H226 lung = test system: NCI-H226 lung
SK-MEL-2 melanoma = test system: SK-MEL-2 melanoma
SF-268 CNS = test system: SF-268 CNS
SK-MEL-5 melanoma = test system: SK-MEL-5 melanoma
NCI-H460 lung = test system: NCI-H460 lung
HOP-62 NSCLC = test system: HOP-62 NSCLC
RPMI-8226 leukemia = test system: RPMI-8226 leukemia
KM12 colon = test system: KM12 colon
EKVX NSCLC = test system: EKVX NSCLC
HL-60(TB) leukemia = test system: HL-60(TB) leukemia
SN12C renal = test system: SN12C renal
MCF7 breast = test system: MCF7 breast
SNB-75 CNS = test system: SNB-75 CNS
U251 CNS = test system: U251 CNS
UACC-257 melanoma = test system: UACC-257 melanoma
SNB-19 CNS = test system: SNB-19 CNS
HS 578T breast = test system: HS 578T breast
CAKI-1 renal = test system: CAKI-1 renal
DU-145 prostate = test system: DU-145 prostate
SK-OV-3 ovarian = test system: SK-OV-3 ovarian
HCC-2998 colon = test system: HCC-2998 colon
OVCAR-3 ovarian = test system: OVCAR-3 ovarian
NCI/ADR-RES ovarian = test system: NCI/ADR-RES ovarian
MOLT-4 leukemia = test system: MOLT-4 leukemia
LOX IMVI melanoma = test system: LOX IMVI melanoma
NCI-H23 lung = test system: NCI-H23 lung

CCN(CC)CCOc1ccc(C(=C(C)c2ccccc2)c2ccc(OCCN(CC)CC)cc2)cc1
GI50 (MDA-MB-435): 3.02 µM | TGI (MDA-MB-435): 6.48 µM | GI50 (MDA-MB-468 breast): 1.84 µM | TGI (MDA-MB-468 breast): 5.04 µM | GI50 (OVCAR-5 ovarian): 3.45 µM | TGI (OVCAR-5 ovarian): 7.76 µM | GI50 (ACHN renal): 3.63 µM | TGI (ACHN renal): 6.97 µM | GI50 (CCRF-CEM leukemia): 2.37 µM | TGI (CCRF-CEM leukemia): 6.61 µM | GI50 (HT29 colon): 1.17 µM | TGI (HT29 colon): 5.6 µM | GI50 (SR leukemia): 2.44 µM | TGI (SR leukemia): > 23 µM | GI50 (OVCAR-8 ovarian): 6.12 µM | TGI (OVCAR-8 ovarian): 18.1 µM | GI50 (K-562 leukemia): 0.968 µM | TGI (K-562 leukemia): > 23 µM | GI50 (UO-31 renal): 2.99 µM | TGI (UO-31 renal): 5.97 µM | GI50 (HCT-116 colon): 2.39 µM | TGI (HCT-116 colon): 7.09 µM | GI50 (A549 NSCLC): 4.54 µM | TGI (A549 NSCLC): 13.3 µM | GI50 (OVCAR-4 ovarian): 4.56 µM | TGI (OVCAR-4 ovarian): 11.7 µM | GI50 (HCT-15 colon): 2.6 µM | TGI (HCT-15 colon): 6.85 µM | GI50 (MDA-MB-231 breast): 3.04 µM | TGI (MDA-MB-231 breast): 6.14 µM | GI50 (TK-10 renal): 3.17 µM | TGI (TK-10 renal): 6.66 µM | GI50 (T-47D breast): 2.66 µM | TGI (T-47D breast): 5.98 µM | GI50 (SF-539 CNS): 3.35 µM | TGI (SF-539 CNS): 6.4 µM | GI50 (PC-3 prostate): 3.59 µM | TGI (PC-3 prostate): 8.25 µM | GI50 (SF-295 CNS): 3.58 µM | TGI (SF-295 CNS): 7.26 µM | GI50 (SK-MEL-28 melanoma): 3.52 µM | TGI (SK-MEL-28 melanoma): 6.65 µM | GI50 (MALME-3M melanoma): 3.61 µM | TGI (MALME-3M melanoma): 6.73 µM | GI50 (COLO 205 colon): 3.36 µM | TGI (COLO 205 colon): 6.89 µM | GI50 (UACC-62 melanoma): 3.89 µM | TGI (UACC-62 melanoma): 7.12 µM | GI50 (NCI-H522 lung): 3.63 µM | TGI (NCI-H522 lung): 7.85 µM | GI50 (BT-549 breast): 4.46 µM | TGI (BT-549 breast): 8.15 µM | GI50 (786-0 renal): 2.98 µM | TGI (786-0 renal): 6.77 µM | GI50 (HOP-92 NSCLC): 1.76 µM | TGI (HOP-92 NSCLC): 6.5 µM | GI50 (A498 renal): 2.73 µM | TGI (A498 renal): 5.62 µM | GI50 (IGROV1 ovarian): 4.27 µM | TGI (IGROV1 ovarian): 9.79 µM | GI50 (SW-620 colon): 3.1 µM | TGI (SW-620 colon): 6.31 µM | GI50 (RXF 393 renal): 2.47 µM | TGI (RXF 393 renal): 6.46 µM | GI50 (M14 melanoma): 3.34 µM | TGI (M14 melanoma): 7.71 µM | GI50 (NCI-H226 lung): 5.92 µM | TGI (NCI-H226 lung): > 23 µM | GI50 (SK-MEL-2 melanoma): 4.13 µM | TGI (SK-MEL-2 melanoma): 7.85 µM | GI50 (SF-268 CNS): 3.47 µM | TGI (SF-268 CNS): 8.81 µM | GI50 (SK-MEL-5 melanoma): 3.57 µM | TGI (SK-MEL-5 melanoma): 6.78 µM | GI50 (NCI-H460 lung): 3.57 µM | TGI (NCI-H460 lung): 6.96 µM | GI50 (HOP-62 NSCLC): 3.54 µM | TGI (HOP-62 NSCLC): 7.31 µM | GI50 (RPMI-8226 leukemia): 3.51 µM | TGI (RPMI-8226 leukemia): 8.8 µM | GI50 (KM12 colon): 3.47 µM | TGI (KM12 colon): 7.22 µM | GI50 (EKVX NSCLC): 5.71 µM | TGI (EKVX NSCLC): > 23 µM | GI50 (HL-60(TB) leukemia): 4.36 µM | TGI (HL-60(TB) leukemia): 22.1 µM | GI50 (SN12C renal): 3.52 µM | TGI (SN12C renal): 7.22 µM | GI50 (MCF7 breast): 0.75 µM | TGI (MCF7 breast): 4.18 µM | GI50 (SNB-75 CNS): 3.07 µM | TGI (SNB-75 CNS): 6.98 µM | GI50 (U251 CNS): 3.69 µM | TGI (U251 CNS): 7.44 µM | GI50 (UACC-257 melanoma): 4.25 µM | TGI (UACC-257 melanoma): 8.08 µM | GI50 (SNB-19 CNS): 4.29 µM | TGI (SNB-19 CNS): 8.7 µM | GI50 (HS 578T breast): 4.08 µM | TGI (HS 578T breast): 10.2 µM | GI50 (CAKI-1 renal): 3.42 µM | TGI (CAKI-1 renal): 7.07 µM | GI50 (DU-145 prostate): 6 µM | TGI (DU-145 prostate): > 23 µM | GI50 (SK-OV-3 ovarian): 3.69 µM | TGI (SK-OV-3 ovarian): 7.16 µM | GI50 (HCC-2998 colon): 2.91 µM | TGI (HCC-2998 colon): 6.14 µM | GI50 (OVCAR-3 ovarian): 2.96 µM | TGI (OVCAR-3 ovarian): 7.11 µM | GI50 (NCI/ADR-RES ovarian): 4.71 µM | TGI (NCI/ADR-RES ovarian): 13.9 µM | GI50 (MOLT-4 leukemia): 4.71 µM | TGI (MOLT-4 leukemia): 14.8 µM | GI50 (LOX IMVI melanoma): 3.14 µM | TGI (LOX IMVI melanoma): 6.25 µM | GI50 (NCI-H23 lung): 4.27 µM | TGI (NCI-H23 lung): 10.7 µM
